Measurements as given in PMC10992144, “Construction of fatty acid derivatives from rubber seed oil as α-glucosidase inhibitors based on rubber seed oil” (Bioresources and Bioprocessing, 2022).
Read-outs that look alike come from different tables or passages of the source.

Tests used:
[1] = molecular target: T1, α-Glucosidase from recombinant yeast (Saccharomyces cerevisiae, UniProt P53341); assay: biochemical; assay type: biochemical; details: for Inhibitory score: 1/IC50, Table 4, S4
T1 construct: purchased Shanghai yuanye Bio-Technology Co. Ltd; host or cells: recombinant yeast
Experimental: Fatty acids and their derivates were diluted in 0.1 M, pH = 6.9 phosphate buffer with 0.5% (v/v) DMSO as cosolvent, to prepare […] sample solutions. 50 μL sample solution and 100 μL 0.5 U α-glucosidase (prepared in the same phosphate buffer) were added into 1.5-mL plastic tubes, incubated at 37 °C, 10 min. Then, 50 μL 5 mM α-PNPG (prepared in the same buffer) was added into the plastic tube, incubated for another 10 min at 37 °C. At the end, 1 M Na2CO3 was added to terminate the reaction.
The Inhibitory score measures the inhibitory intensity of each sample on α-glucosidase, calculated by 1/IC50. Data were subjected to the one-way ANOVA analysis by SPSS 23.0, shown as mean ± SD (n = 3).

[2] = test system: α-glucosidase; details: result in words; ref Paul et al. ([2010]); cited from earlier work
[3] = 0.1 M phosphate buffer pH 6.9, 0.5% DMSO, 37 °C, α-PNPG, mean ± SD (n = 3), read-out: IC50

T1 sequence (P53341 whole entry): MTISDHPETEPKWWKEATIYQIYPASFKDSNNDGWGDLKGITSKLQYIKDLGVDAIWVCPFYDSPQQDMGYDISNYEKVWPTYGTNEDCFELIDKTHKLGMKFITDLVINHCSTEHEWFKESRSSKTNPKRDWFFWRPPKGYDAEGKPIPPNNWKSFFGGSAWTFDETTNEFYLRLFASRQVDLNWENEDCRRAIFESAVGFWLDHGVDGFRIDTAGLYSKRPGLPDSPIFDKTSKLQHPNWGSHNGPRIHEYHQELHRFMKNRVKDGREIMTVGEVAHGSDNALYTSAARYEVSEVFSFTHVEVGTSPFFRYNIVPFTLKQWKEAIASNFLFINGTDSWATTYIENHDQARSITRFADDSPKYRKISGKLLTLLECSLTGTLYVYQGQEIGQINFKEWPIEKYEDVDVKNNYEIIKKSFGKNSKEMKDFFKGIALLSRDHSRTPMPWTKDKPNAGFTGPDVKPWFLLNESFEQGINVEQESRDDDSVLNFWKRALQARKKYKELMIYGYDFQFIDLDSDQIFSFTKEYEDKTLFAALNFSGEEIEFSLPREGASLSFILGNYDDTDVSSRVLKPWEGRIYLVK

Compound | IC50 [1, 3] | Inhibitory score [1] | other results
CCCCCCCC/C=C\CCCCCCCC(=O)OCCCCCC [Hexyl, hexyl oleate] | 4160 ± 210 nM | 0.24 | –
CCCCCCCC/C=C\CCCCCCCC(=O)OC(C)C [Isopropyl, isopropyl oleate] | 600 ± 10 nM | 1.67 | –
CC/C=C\C/C=C\C/C=C\CCCCCCCC(=O)O [C18:3, α-linolenic acid] | – | – | IC50 [1]: 540 ± 10 nM
CCCCCCCCCC(=O)O [C10:0, capric acid] | 114000 ± 2370 nM | – | –
CCCCCCCC/C=C\CCCCCCCC(=O)OCCCCCCCC [Octyl, octyl oleate] | 3250 ± 80 nM | 0.31 | –
CCCCCCCCCCCCCCCC(=O)O [C16:0, palmitic acid] | 13970 ± 10 nM | – | –
CCCCCCCC/C=C\CCCCCCCC(=O)OCCCCC [Pentyl, amyl oleate] | 3210 ± 170 nM | 0.31 | –
CCCCCCCCC(O)CCCCCCCCC(=O)O (stereo not shown) [10-HSA, 10-hydroxystearic acid] | 1710 ± 20 nM | 0.58 | –
CCCCC/C=C\C/C=C\CCCCCCCC(=O)O [C18:2, linoleic acid] | – | – | IC50 [1]: 600 ± 10 nM
CCCCCCCCC(O)/C=C/CCCCCCC(=O)O (stereo not shown) [10-hydroxy-8 (E)-octadecenoic acid] | – | – | inhibition of α-glucosidase [2]: useful inhibitor
CCCCCCCC/C=C\CCCCCCCC(=O)OCCCC [Butyl, butyl oleate] | 2340 ± 110 nM | 0.43 | –
CCCCC/C=C\CC(O)CCCCCCCCC(=O)O (stereo not drawn) [10-HOA, 10-hydroxy-cis-12-octadecenoic acid] | – | 2.58 | IC50 [1]: 390 ± 10 nM
CCCCCCCC/C=C\CCCCCCCC(=O)O [cis-C18:1, Oleic acid] | 810 ± 40 nM | – | Inhibitory score ([1]; listed as OA): 1.23
CCCCCCCC/C=C\CCCCCCCC(=O)OCCC [Propyl, propyl oleate] | 1750 ± 40 nM | 0.57 | –
CCCCCCCCCCCCCC(=O)O [C14:0, myristic acid] | 56200 ± 2810 nM | – | –
CCCCCCCCCCCC(=O)O [C12:0, lauric acid] | 135000 ± 6430 nM | – | –
